Reference: ChEMBL document CHEMBL1130308, “Cytotoxicity of bis(phenylamidinium)furan alkyl derivatives in human tumour cell lines: Relation to DNA minor groove binding” (Bioorg Med Chem Lett, 1997)

Legend:
Assay type in all cases: functional, cell-based
A2780 [1] = test: The compound was tested for cytotoxic potency against A2780 human tumor cell lines.
A2780 [2] = test: The compound was tested for cytotoxic potency against A2780R human tumor cell lines.
CH1 = test: The compound was tested for cytotoxic potency against CH1 human tumor cell lines.
SK-OV-3 = test: The compound was tested for cytotoxic potency against SKOV-3 human tumor cell lines.
A2780 [3] = test: The compound was tested for cytotoxic potency against A2780 human tumor cell lines

Compound | IC50 (A2780 [1]; a2780) [µM] | IC50 (A2780 [2]; a2780) [µM] | IC50 (CH1; ch1) [µM] | IC50 (A2780 [1]; Homo sapiens, A2780) [µM] | IC50 (A2780 [2]; Homo sapiens, A2780) [µM] | IC50 (CH1; Homo sapiens, CH1) [µM] | IC50 (SK-OV-3) [µM] | IC50 (A2780 [3]) [µM]
CISPLATIN | 0.3 | 3.3 | 0.1 |  |  |  |  | 
CC(C)CNC(=N)c1ccc(-c2ccc(-c3ccc(C(=N)NCC(C)C)cc3)o2)cc1 |  |  |  | 22.5 | 12 | 9 | 52 | 
N=C(NC1CCCC1)c1ccc(-c2ccc(-c3ccc(C(=N)NC4CCCC4)cc3)o2)cc1 |  |  |  | 12 | 3.8 | 3.6 | 17 | 
N=C(NC1CCC1)c1ccc(-c2ccc(-c3ccc(C(=N)NC4CCC4)cc3)o2)cc1 |  |  |  | 11 | 3.3 | 4.2 | 25 | 
N=C(NC1CCCCC1)c1ccc(-c2ccc(-c3ccc(C(=N)NC4CCCCC4)cc3)o2)cc1 |  |  |  | 4.8 | 2.5 | 2.1 | 5.2 | 
N=C(N)c1ccc(-c2ccc(-c3ccc(C(=N)N)cc3)o2)cc1 [FURAMIDINE] |  |  |  |  | 15.5 | 46.5 | 42.5 | 46
N=C(NCC1CC1)c1ccc(-c2ccc(-c3ccc(C(=N)NCC4CC4)cc3)o2)cc1 |  |  |  | 36 | 13 | 15 | 56 | 
CC(C)NC(=N)c1ccc(-c2ccc(-c3ccc(C(=N)NC(C)C)cc3)o2)cc1 |  |  |  | 38 | 6.4 | 44.5 | 20.5 | 
CCC(CC)NC(=N)c1ccc(-c2ccc(-c3ccc(C(=N)NC(CC)CC)cc3)o2)cc1 |  |  |  | 32.5 | 7.1 | 16 | 31 | 
N=C(NC1CC1)c1ccc(-c2ccc(-c3ccc(C(=N)NC4CC4)cc3)o2)cc1 |  |  |  | 37 | 15.5 | 18 | 48 | 
